What was measured:
[1] = T1 relaxivity of gadolinium complexes (IBM Minispec spin analyzer); assay type: physicochemical; details: Gd(L) complex, 20 MHz, 39±1° C.; for T1 Relaxivity: aqueous solutions, 0.1-5 mM Gd
Protocol: The T1 relaxivity was measured for nine prior art gadolinium complexes (1-9) as compared to novel gadolinium complexes using the ligands of Examples 1, 2 and 3 (#10, 11 and 12, respectively, in the Table below). Relaxivity was measured on an IBM Minispec spin analyzer operating at 20 MHz and 39±1° C. Aqueous solutions were used in 0.1-5 mM Gd concentration range.

[2] = chelating a paramagnetic ion, e.g., Gd; cited from earlier work
[3] = chelating a paramagnetic ion, e.g., Gd; cited from earlier work; remark: listed apart in the source

relaxivity (comparison in words of Table 1) [1] | T1 Relaxivity [1] [mM⁻¹ s⁻¹] | Compound | relaxivity [2] | water solubility [3]
especially high | 5.4 | O=C(O)CN1CCN(CC(=O)O)CCN(CC(=O)Nc2cc(C(=O)NC(CO)CO)cc(C(=O)NC(CO)CO)c2)CCN(CC(=O)O)CC1 [HAS-DO3A] | – | –
especially high | 5.9 | 10-[2-[[3,5-Bis[[(2-methylbutyl)amino]carbonyl]-phenyl]amino]2-oxoethyl]1,4,7,10-tetraazacyclododecane-1,4,7-triacetic acid, monogadolinium complex [AAA-DO3A] | – | –
– | 3.4 | O=C(O)CN1CCN(CC(=O)O)CCN(CC(=O)O)CCN(CC(=O)O)CC1 [DOTA, reference compound] | – | –
– | – | O=C(O)CN1CCN(CC(=O)O)CCN(CC(=O)Nc2ccccc2)CCN(CC(=O)O)CC1 | acceptable relaxivity | poor water solubility
especially high | 5.8 | 10-[2-[[3,5-Bis[[(2,3-dihydroxypropyl)amino]-carbonyl]phenyl]amino]-2-oxoethyl]-1,4,7,10-tetraazacyclododecane-1,4,7-triacetic acid, monogadolinium complex [HAA-DO3A] | – | –
– | 4.4 | O=C(O)CN(CCN(CC(=O)O)C(=O)NCC(O)CO)CCN(CC(=O)O)C(=O)NCC(O)CO (centres unmarked) (Gd complex, metal not drawn) [DTPA-HA, reference compound] | – | –

Compound | relaxivity (comparison in words of Table 1) [1] | T1 Relaxivity [1] [mM⁻¹ s⁻¹] | relaxivity [2] | water solubility [3]
O=C(O)CN(CCN(CC(=O)O)CC(=O)O)CCN(CC(=O)O)CC(=O)O (Gd complex, metal not drawn) [DTPA, diethylenetriaminepentaacetic acid, reference compound] | – | 3.7 | – | –

— patent US7351389B2, “Aminocarboxylate ligands having substituted aromatic amide moieties” (Bracco International B.V., priority 1991, dated 2008)
